Where a name gives a salt, the structure may show the parent alone.
Legend:
[1] = test system: adult male Brugia pahangi parasites (BP AM); assay: Killing of adult male Brugia pahangi parasites (BP AM) in culture; assay type: cell-based
Protocol: (§1) The drug was applied at 1, 2 and 3 parts per million (ppm) and was 100% effective at killing the parasites at all three concentrations. Even at 1 ppm, all parasites were killed within 120 hours after treatment. The control treatment is with 1, 2 and 3 ppm ethanol given to the parasites in culture under the same conditions. One adult male parasite treated with 1 ppm ethanol died at about 40 hours. This death is not experimentally significant as occasionally a parasite dies in culture without any drug treatment.

[2] = test system: adult female Brugia pahangi parasites (BP AF); assay: Killing of adult female Brugia pahangi parasites (BP AF) in culture; assay type: cell-based
Protocol: as §1, with “90” for “120”, “female” for “male”, “80” for “40”

microfilariae (larvae) = assay: Killing of microfilariae (larvae) produced following mating of adult parasites; assay type: cell-based, Brugia pahangi; settings: repeated experiments
Source text: 100% of all adult male and female parasites are always killed upon treatment with NDM.

[3] = Biological activity assays for toxicity and mutagenicity; settings: preliminary data
[4] = repeated in many separate trials

In the case of `C=C1C(=O)O[C@@H]2C[C@H](C)/C=C\C(=O)[C@](C)(O)[C@@H](OS(C)(=O)=O)[C@@H](OC(=O)CC(C)C)[C@@H]12` [NDM, Neurolenin D Mesylate], the “time after treatment by which all parasites were killed” value ([1]; adult male BP in culture, 1 ppm) is reported as no more than 120 h, the “effective at killing the parasites” value ([1]; adult male BP in culture, drug applied at 1, 2 and 3 ppm, all three concentrations, FIG. 2) is reported as 100% and the “speed of killing compared with other neurolenin derivatives” value ([1]; adult male BP, FIG. 2, at the endpoint 100% of worms killed) is reported as “more slowly”. For the same molecule, the “adult male parasites killed upon treatment” value [1, 4] was 100%, the “time after treatment by which all parasites were killed” value ([2]; adult female BP in culture, 1 ppm) was no more than 90 h and the “effective at killing the parasites” value ([2]; adult female BP in culture, drug applied at 1, 2 and 3 ppm, all three concentrations, FIG. 1) was 100%. For the same molecule, the “speed of killing compared with other neurolenin derivatives” value ([2]; adult female BP, FIG. 1, at the endpoint 100% of worms killed) was “more slowly”, the “adult female parasites killed upon treatment” value [2, 4] was 100% and the “microfilariae (larvae) killed” value (microfilariae (larvae)) was 100%. The mutagenicity [3] was “not toxic or mutagenic” and the toxicity [3] was “not toxic”.

— patent publication US20230339877A1, “Synthesis and Composition of Neurolenin D Mesylate and Related Compounds - New Drugs for the Treatment of Parasitic Nematode Infections in Humans, Animals and Plants” (Smith College, priority 2022, published 2023)
